{"source": "patent US20160367831A1", "about": "“IMPLANTABLE MEDICAL DEVICE, SYSTEM AND METHOD FOR INDUCING THROMBOSIS IN AN ARTERY OF A LIVING ANIMAL” (Chang Gung Memorial Hospital, Linkou, priority 2015, published 2016)", "type_in_all_cases": "in vivo, spontaneously hypertensive rat (SHR)", "key": {"[1]": {"tested_on": "common carotid artery (CCA)", "assay": "LED photochemical thrombosis induction in the common carotid artery, ultrasound imaging", "details": "for thrombosis formation in the CCA (ultrasound): no irradiation", "source_text": "A system for inducing thrombosis was provided, including an implantable medical device and an external power controller. The external power controller includes a Class-E amplifier and a resonant transmitting coil. The implantable medical device includes a resonant receiving coil (i.e., the wireless power receiver) and an LED assembly (i.e., the irradiation module) including a surface-mount device type LED (i.e., the light-emitting element) and a LED lens (i.e., the lens element) disposed on the LED. The LED assembly and the resonant receiving coil were hermetically packaged with polydimethylsiloxane (PDMS) (i.e., the encapsulator). An open ditch of approximately 2 mm in width and depth was made on the LED lens, and four cuts (i.e., the engaging groove) were formed on the PDMS. A male spontaneously hypertensive rat (SHR) (i.e., the living animal) was anesthetized with 3% isoflurane in a mixture of 30% oxygen and 70% nitrogen. After the administration of anesthesia, the rat was placed in a supine position. A 1 cm incision was made in the left inguinal area and the femoral vein was carefully dissected. A polyethylene tube to be used for rose bengal injection was inserted in the femoral vein via the dissected incision and secured using 3-0 nylon suture. […] Blunt dissection of the left common carotid artery (CCA) was performed. The CCA was placed into the ditch of the LED lens, and the implantable medical device was secured onto the CCA using 3-0 nylon suture (i.e., the securing strap) to engage the cuts on the PDMS. After the implantation procedure, the surgical wound was sutured and the rat was placed in a prone position near the transmitting coil of the external power controller. After isoflurane was decreased to 1%, rose bengal (Sigma-Aldrich, St. Louis, Mo., USA) was administrated intravenously at a dose of 60 mg/kg. Thereafter, the external power controller was powered to wirelessly drive the LED of the implantable medical device via the resonant receiving coil to irradiate the CCA at a wavelength of 540 nm. […] The LED light power was measured using a Nova handheld laser power meter (Ophir Optronics Solutions, Ltd., Israel). After irradiation, the implantable medical device was removed and the wound was sutured using 3-0 nylon. Ultrasound images of the CCA prior to irradiation (Pre OP), immediately after irradiation (Post OP), 3 days after irradiation (Post OP 3d), and 7 days after irradiation (Post OP 7d) were captured and are shown in FIG. 6."}, "[2]": {"tested_on": "common carotid artery (CCA)", "assay": "Magnetic Resonance Angiography (MRA) examination of the CCAs", "details": "Example 3: intermittent 4.5 mW/cm2 LED", "protocol": "Serial in vivo MRA examination was performed on the CCAs of Example 3 and Comparative Example 2, and the typical MR imaging (MRI) experimental scheme of the time sequence is shown in FIG. 9. Images were acquired using a 7T MRI system (ClinScan 70/30 USR) (Bruker, Rheinstetten, Germany) with a linear body coil. The rat was anaesthetized with 1.5% isoflurane and connected to a respiratory rate monitor. The flow of anesthetic gas was constantly regulated to maintain the breathing rate at approximately 40/min. MRA of the CCAs was performed using the time-of-flight (TOF) method without a contrast agent. Transverse slices (panels (a) to (d) of FIG. 9) were acquired with a fast, low-angle shot (FLASH) using the following parameters: TR=22 ms, TE=4.87 ms, pulse angle=90 degrees, field of view (FQV)=55×42 mm2, and matrix size=58×256. T2-weighted images (panels (e) to (f) of FIG. 9) were acquired using a turbo spin-echo sequence and using the following parameters: TR=2900 ms, TE=37 ms, turbo factor=7, FOV=45×45 mm2, slice thickness=1 mm, and matrix size=240×320. The imaged area covered the CCAs, the carotid bifurcation, the internal carotid artery, and the external carotid artery. Contiguous cross-sectional images were obtained perpendicular to the long axis of the neck. Thrombus formation in the CCAs of Example 3 and Comparative Example 2 was observed by MRA and coronal sequential MR images. […] Because the blood flow of the CCA of Example 3 was disrupted by thrombus, MRA of the CCA of Example 3 was not as bright as the MRA of the CCA of Comparative Example 2 (panel (b) of FIG. 9)."}, "[3]": {"tested_on": "common carotid artery (CCA)", "assay": "Histological (H&E) and immunohistochemical (PECAM-1) staining of the CCAs", "details": "for thrombus formation, histologic examination (H&E): 3 days", "protocol": "The animal of Example 3 and Comparative Example 2 was anesthetized and sacrificed. Both CCAs of Example 3 and Comparative Example 2 were removed and washed in phosphate buffer solution, dehydrated on dry ice, and stored at −80° C. for 24 hours. Before sectioning, all CCAs were embedded in Optimal Cutting Temperature Compound (Tissue Tek, 4583) (Sakura Finetek USA, Inc., Torrance, Calif., USA) and stored at −80° C. for another 12 hours. Cross-sections of the CCAs of Example 3 and Comparative Example 2 (10 μm in thickness) were consecutively cut on a microtome-cryostat. Then, these sections were subjected to hematoxylin and eosin (H&E) staining for evaluation of thrombus formation. For immunohistochemical staining, the slides were treated with cold acetone for 10 minutes and then with methanol with 0.3% H2O2 for 10 minutes. After blocking endogenous peroxidase using a peroxidase blocking reagent (DAKO, Carpinteria, Calif., USA), the primary antibody (anti-PECAM-1 [anti-CD31]) (AbD Serotec, Dusseldorf, Germany) was applied at a dilution of 1:500 overnight at 4° C., followed by a universal immuno-peroxidase polymer (Histofine) (Cosmo Bio, Carlsbad, Calif., USA) for 1 hour at room temperature. Development of color was achieved by exposure for 2 minutes to the DAB chromogen system (DAKO). Endothelium cells were considered positive for PECAM-1 in the presence of intense brown staining."}, "[4]": {"details": "Example 3: intermittent 4.5 mW/cm2 LED"}}, "data": [{"compound": "O=C([O-])c1c(Cl)c(Cl)c(Cl)c(Cl)c1-c1c2cc(I)c(=O)c(I)c-2oc2c(I)c([O-])c(I)cc12.[Na+].[Na+]", "note": "[rose bengal]", "values": [{"measurement": "thrombosis formation in the CCA (ultrasound)", "setting": "[1]; Comparative Example 1: 60 mg/kg i.v., up to 7 days", "value": "thrombosis did not form"}, {"measurement": "thrombosis formation in the CCA (ultrasound)", "setting": "[1]; Comparative Example 2: right CCA of the Example 3 rat, up to 7 days", "value": "thrombosis was not formed"}, {"measurement": "thrombosis / occlusion of the CCA (ultrasound)", "setting": "[1]; Comparative Example 5: intermittent LED 4.0 mW/cm2 (2 h, off 30 min, 2 h), up to 1 day", "value": "disappeared within one day after irradiation"}, {"measurement": "thrombosis / occlusion of the CCA (ultrasound)", "setting": "[1]; Comparative Example 6: intermittent LED 5.0 mW/cm2 (2 h, off 30 min, 2 h), up to 1 day", "value": "the artery became totally occluded one day after irradiation"}, {"measurement": "thrombosis / occlusion of the CCA (ultrasound)", "setting": "[1]; Example 1: 60 mg/kg i.v., LED 540 nm, 6 mW/cm2 continuously for 4 hours, up to 7 days", "value": "totally occluded right after irradiation and total occlusion was maintained for 7 days"}, {"measurement": "thrombosis / occlusion of the CCA (ultrasound)", "setting": "[1]; Example 2: 60 mg/kg i.v., LED 5 mW/cm2 continuously for 4 hours, up to 7 days", "value": "the formed thrombus gradually diminished 3 days after irradiation (Post OP 3d) and totally disappeared at 7 days after irradiation"}, {"measurement": "thrombosis / occlusion of the CCA (ultrasound)", "setting": "[1]; Example 3: 60 mg/kg i.v., LED 4.5 mW/cm2 2 hours, off 30 minutes, 2 hours, up to 7 days", "value": "the CCA was totally occluded at 7 days after irradiation"}, {"measurement": "thrombus in the CCA (MRA / T2-weighted MRI)", "setting": "[2]; immediately after irradiation", "value": "the thrombus appeared on the vessel wall"}, {"measurement": "thrombus in the CCA (MRA / T2-weighted MRI)", "setting": "[2]; seven days after irradiation", "value": "totally occluded"}, {"measurement": "thrombus in the CCA (MRA / T2-weighted MRI)", "setting": "[2]; three days after irradiation", "value": "enlarged and significantly disrupted blood flow"}, {"measurement": "endothelial cells, PECAM-1 staining", "setting": "[3]; Comparative Example 2: non-irradiated CCA of the same rat", "value": "intact"}, {"measurement": "endothelial cells, PECAM-1 staining", "setting": "[3]; [4]", "value": "injured and discontinued"}, {"measurement": "thrombus formation, histologic examination (H&E)", "setting": "[3]; [4]", "value": "formation of thrombus packed with red blood cells, leucocytes, and platelets"}, {"measurement": "thrombus formation, histologic examination (H&E)", "setting": "[3]; non-irradiated CCA of the same rat", "value": "no thrombus formation was observed"}]}]}
